# What was measured:
# [1] = biological target: T1, recombinant human mGluR4a receptors (Homo sapiens, UniProt Q14833); experiment: mGluR4 assay on HEK-expressing human mGluR4 (fluorescent cell based Ca2+ mobilization assay, FLIPR); settings: HEK-293 cells expressing hmGluR4; enhancement of EC25 glutamate response; mean of at least three independent experiments in duplicate; read-out: Ca^2+ Flux (mean EC50)
# T1 construct: expressed in transfected cells
# Source text: mGluR4 Assay on HEK-Expressing Human mGluR4
# The compounds of the present invention are positive allosteric modulators of mGluR4 receptor. Their activity was examined on recombinant human mGluR4a receptors by detecting changes in intracellular Ca^2+ concentration, using the fluorescent Ca^2+-sensitive dye Fluo4-(AM) and a Fluorometric Imaging Plate Reader (FLIPR, Molecular Devices, Sunnyvale, Calif.).
# The cDNA encoding the human metabotropic glutamate receptor (hmGluR4), (accession number NM_000841.1, NCBI Nucleotide database browser), was subcloned into an expression vector containing also the Hygromycin resistance gene. In parallel, the cDNA encoding a G protein allowing redirection of the activation signal to intracellular calcium flux was subcloned into a different expression vector containing also the Puromycin resistance gene. Transfection of both these vectors into HEK293 cells with PolyFect reagent (Qiagen) according to supplier's protocol, and hygromycin and puromycin treatment allowed selection of antibiotic resistant cells which had integrated stably one or more copies of the plasmids. Positive cellular clones expressing hmGluR4 were identified in a functional assay measuring changes in calcium flux in response to glutamate or selective known mGluR4 orthosteric agonists and antagonists. HEK-293 cells expressing hmGluR4 were maintained in media containing DMEM, dialyzed Fetal Calf Serum (10%), Glutamax™ (2 mM), Penicillin (100 units/mL), Streptomycin (100 μg/mL), Geneticin (100 μg/mL) and Hygromycin-B (40 μg/mL) and Puromycin (1 μg/mL) at 37° C./5% CO2.
# Human mGluR4 HEK-293 cells were plated out 24 hours prior to FLIPR^384 assay in black-walled, clear-bottomed, poly-L-ornithine-coated 384-well plates at a density of 25,000 cells/well in a glutamine/glutamate free DMEM medium containing foetal bovine serum (10%), penicillin (100 units/mL) and streptomycin (100 μg/mL) at 37° C./5% CO2.
# On the day of the assay, the medium was aspirated and the cells were loaded with a 3 μM solution of Fluo4-AM (LuBioScience, Lucerne, Switzerland) in 0.03% pluronic acid. After 1 hour at 37° C./5% CO2, the non incorporated dye was removed by washing cell plate with the assay buffer and the cells were left in the dark at it for six hours before testing. All assays were performed in a pH 7.4 buffered-solution containing 20 mM HEPES, 143 mM NaCl, 6 mM KCl, 1 mM MgSO4, 1 mM CaCl2, 0.125 mM sulfapyrazone and 0.1% glucose.
# After 10 s of basal fluorescence recording, various concentrations of the compounds of the invention were added to the cells. Changes in fluorescence levels were first monitored for 180 s in order to detect any agonist activity of the compounds. Then the cells were stimulated by an EC25 glutamate concentration for an additional 110 s in order to measure enhancing activities of the compounds of the invention. EC25 glutamate concentration is the concentration giving 25% of the maximal glutamate response.
# The concentration-response curves of representative compounds of the present invention were generated using the Prism GraphPad software (Graph Pad Inc, San Diego, USA). The curves were fitted to a four-parameter logistic equation:
# (Y=Bottom+(Top−Bottom)/(1+10̂((Log EC50-X)*Hill Slope)
# allowing the determination of EC50 values.
# The Table 3 below represents the mean EC50 obtained from at least three independent experiments of selected molecules performed in duplicate.
# T1 sequence (Q14833 33-912): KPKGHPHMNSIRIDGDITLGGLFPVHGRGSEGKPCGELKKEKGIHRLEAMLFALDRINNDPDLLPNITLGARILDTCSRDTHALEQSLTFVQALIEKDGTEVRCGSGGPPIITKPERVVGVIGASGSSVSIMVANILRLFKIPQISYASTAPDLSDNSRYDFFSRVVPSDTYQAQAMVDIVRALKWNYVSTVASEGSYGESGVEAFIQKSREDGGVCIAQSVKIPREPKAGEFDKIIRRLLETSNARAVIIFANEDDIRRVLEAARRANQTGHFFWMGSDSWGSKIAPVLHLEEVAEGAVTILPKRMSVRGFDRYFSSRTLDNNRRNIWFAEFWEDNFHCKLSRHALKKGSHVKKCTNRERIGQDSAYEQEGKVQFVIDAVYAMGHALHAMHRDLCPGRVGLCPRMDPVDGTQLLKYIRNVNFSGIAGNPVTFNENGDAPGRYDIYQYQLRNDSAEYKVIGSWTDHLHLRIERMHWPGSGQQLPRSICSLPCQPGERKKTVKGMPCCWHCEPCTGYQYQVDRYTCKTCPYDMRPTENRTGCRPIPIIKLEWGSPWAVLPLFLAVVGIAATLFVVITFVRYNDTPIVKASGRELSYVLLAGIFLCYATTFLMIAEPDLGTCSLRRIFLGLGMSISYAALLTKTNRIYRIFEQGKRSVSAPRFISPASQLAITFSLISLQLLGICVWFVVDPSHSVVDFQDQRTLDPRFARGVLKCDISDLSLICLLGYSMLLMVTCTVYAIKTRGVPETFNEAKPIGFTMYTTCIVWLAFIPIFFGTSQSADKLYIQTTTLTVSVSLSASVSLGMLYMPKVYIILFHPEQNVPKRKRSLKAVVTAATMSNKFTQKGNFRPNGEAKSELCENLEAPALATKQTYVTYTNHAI
compound,measurement,setting,value
"Cc1ccnc(Nc2nc(-c3cn[nH]c3C(=O)C3CC3)cs2)n1 [Compound 1-27, Cyclopropyl(4-(2-(4-methylpyrimidin-2-ylamino)thiazol-4-yl)-1H-pyrazol-5-yl)methanone]",melting point,,239 to 240 °C
same,EC50,[1],0.1 to 1 µM
"Cc1ccnc(Nc2nc(-c3c[nH]nc3C(O)c3ccccc3)cs2)n1 (stereo not shown) [Compound 1-26, (4-(2-(4-Methylpyrimidin-2-ylamino)thiazol-4-yl)-1H-pyrazol-3-yl)(phenyl)methanol]",melting point,,249.5 °C
same,EC50,[1],1 to 10 µM
"Cc1ccnc(Nc2nc(-c3c[nH]nc3-c3cccc(N(C)C)c3)cs2)n1 [Compound 1-30, 4-(3-(3-(Dimethylamino)phenyl)-1H-pyrazol-4-yl)-N-(4-methylpyrimidin-2-yl)thiazol-2-amine]",melting point,,239 to 241 °C
same,EC50,[1],1 to 10 µM
"CC(=O)c1sc(Nc2nccc(C)n2)nc1-c1cn[nH]c1 [Compound 1-46, 1-(2-(4-Methylpyrimidin-2-ylamino)-4-(1H-pyrazol-4-yl)thiazol-5-yl)ethanone]",melting point,,288 to 291 °C
same,EC50,[1],0.1 to 1 µM
"Cc1ccnc(Nc2nc(-c3c[nH]nc3C(=O)c3ccccc3)cs2)n1 [Compound 1-25, (4-(2-(4-Methylpyrimidin-2-ylamino)thiazol-4-yl)-1H-pyrazol-3-yl)(phenyl)methanone]",melting point,,254 to 255 °C
"COc1ccc(F)cc1-c1n[nH]cc1-c1csc(Nc2nccc(C)n2)n1 [Compound 1-5, 4-(3-(5-Fluoro-2-methoxyphenyl)-1H-pyrazol-4-yl)-N-(4-methylpyrimidin-2-yl)thiazol-2-amine]",melting point,,247 °C
same,EC50,[1],0.1 to 1 µM
"COCc1n[nH]cc1-c1csc(Nc2ncc(F)cn2)n1 [Compound 1-37, N-(5-Fluoropyrimidin-2-yl)-4-(3-(methoxymethyl)-1H-pyrazol-4-yl)thiazol-2-amine]",EC50,[1],1 to 10 µM
"COC(C)c1[nH]ncc1-c1csc(Nc2nccc(C)n2)n1 (stereo not shown) [Compound 1-29, 4-(5-(1-Methoxyethyl)-1H-pyrazol-4-yl)-N-(4-methylpyrimidin-2-yl)thiazol-2-amine]",EC50,[1],0.1 to 1 µM
"Cc1ccnc(Nc2nc(-c3c[nH]nc3-c3cnn4c3CCC4)cs2)n1 [Compound 1-8, 4-(3-(5,6-Dihydro-4H-pyrrolo[1,2-b]pyrazol-3-yl)-1H-pyrazol-4-yl)-N-(4-methylpyrimidin-2-yl)thiazol-2-amine]",EC50,[1],1 to 10 µM
"Cc1ccnc(Nc2nc(-c3c[nH]nc3-c3cncc(Cl)c3)cs2)n1 [Compound 1-10, 4-(3-(5-Chloropyridin-3-yl)-1H-pyrazol-4-yl)-N-(4-methylpyrimidin-2-yl)thiazol-2-amine]",EC50,[1],1 to 10 µM
"COC(=O)N1CC=C(c2n[nH]cc2-c2csc(Nc3nccc(C)n3)n2)CC1 [Compound 1-41, Methyl 4-(4-(2-(4-methylpyrimidin-2-ylamino)thiazol-4-yl)-1H-pyrazol-3-yl)-5,6-dihydropyridine-1 (2H)-carboxylate]",EC50,[1],1 to 10 µM
3-(3-(2-(Pyrimidin-2-ylamino)thiazol-4-yl)-1H-pyrazol-4-yl)benzonitrile [Compound 1-43],EC50,[1],< 0.1 µM
"Cc1ccnc(Nc2nc(-c3c[nH]nc3-c3ccccc3C)cs2)n1 [Compound 1-19, N-(4-Methylpyrimidin-2-yl)-4-(3-o-tolyl-1H-pyrazol-4-yl)thiazol-2-amine]",EC50,[1],1 to 10 µM
"Cc1ccnc(Nc2nc(-c3c[nH]nc3-c3cccc(C#N)c3)cs2)n1 [Compound 1-4, 3-(4-(2-(4-Methylpyrimidin-2-ylamino)thiazol-4-yl)-1H-pyrazol-3-yl)benzonitrile]",EC50,[1],< 0.1 µM

# From US20130210809A1, “NOVEL 2-AMINO-4-PYRAZOLYL-THIAZOLE DERIVATIVES AND THEIR USE AS ALLOSTERIC MODULATORS OF METABOTROPIC GLUTAMATE RECEPTORS” (priority 2010, published 2013)
